These results are taken from ChEMBL document CHEMBL1143995, “Virtual screening approaches for the identification of non-lipid autotaxin inhibitors” (Bioorg Med Chem, 2008).
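Note: activity read as cleavage of a fluorescent lysophosphatidylcholine analog by autotaxin expressed in the cells.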

This experiment deals with Autotaxin (Homo sapiens) (UniProt Q13822). The settings on record: MDA-MB-435, at 10 µM.
Description: Inhibition of human autotaxin expressed in MDA-MB-435 cells assessed as fluorescent lysophosphatidyl choline analog hydrolysis at 10 uM
With `Cc1ccnc(N2C(=O)c3ccc(C(=O)c4ccc5c(c4)C(=O)N(c4cc(C)ccn4)C5=O)cc3C2=O)c1`, the inhibition – broadly, the percentage by which the read-out fell short of the control – is 91%.

In turn, `CCCCCCCOC(=O)c1ccc(N2C(=O)c3ccc(C(=O)c4ccc5c(c4)C(=O)N(c4ccc(C(=O)OCCCCCCC)cc4)C5=O)cc3C2=O)cc1` returned an inhibition of 58%.

The compound `CC(=O)Nc1ccc(N2C(=O)c3ccc(C(=O)c4ccc5c(c4)C(=O)N(c4ccc(NC(C)=O)cc4)C5=O)cc3C2=O)cc1` displayed an inhibition of 59%.

`O=C(O)c1cc(NC(=O)c2ccc3c(c2)C(=O)N(Cc2cccnc2)C3=O)cc(C(=O)O)c1`: the inhibition stood at 86%.

Regarding `O=C(O)c1ccc2c(c1)C(=O)N(c1ccc(C(=O)OCC(=O)c3ccccc3)cc1)C2=O`, the inhibition came out at 71%.

As to `Cc1cc(=O)oc2cc(OCC(=O)NC(CC(=O)O)C(=O)O)ccc12` (stereo not given), the inhibition was determined as 85%.

`O=C(Nc1ccc(O)c(C(=O)O)c1)c1ccc2c(c1)C(=O)N(CC1CCCO1)C2=O` (stereo not given) came in with an inhibition of 67%.

As for `O=C(Cc1ccccc1)Nc1cccc(N2C(=O)c3ccc(C(=O)O)cc3C2=O)c1`, the inhibition came to 74%.

Consider `O=C(O)c1ccc(Oc2ccc(C(=O)c3ccc4c(c3)C(=O)N(c3cccc5ccccc35)C4=O)cc2)cc1`, for which the inhibition was 31%.

Regarding `O=C(O)c1ccc2c(c1)C(=O)N(c1cccc(-c3nc4ccccc4c(=O)o3)c1)C2=O`, the inhibition was 71%.

The compound `CC(=O)Oc1ccc(N2C(=O)c3ccc(C(=O)c4ccc5c(c4)C(=O)N(c4ccc(OC(C)=O)cc4C(=O)O)C5=O)cc3C2=O)c(C(=O)O)c1` had an inhibition of 53%.

Compound `COCC(=O)N1N=C(c2cccc(NS(C)(=O)=O)c2)CC1c1cccc([N+](=O)[O-])c1` (stereo not given) returned an inhibition of 85%.

`O=C(O)c1ccc(Oc2ccc(C(=O)c3ccc4c(c3)C(=O)N(c3ccc(O)cc3)C4=O)cc2)cc1` returned an inhibition of 62%.

Compound `O=C(c1ccc2c(c1)C(=O)N(c1ccc(Br)cc1)C2=O)c1ccc2c(c1)C(=O)N(c1ccc(Br)cc1)C2=O` gave an inhibition of 93%.

`CCn1c(SCC(=O)Nc2ccc(C(C)=O)cc2)nc2nc3c(cc2c1=O)CCCC3` gave an inhibition of 21%.

`CCn1cc(C(=O)O)c(=O)c2cnc(N3CCN(C(=S)NC(=O)c4c(-c5ccccc5)noc4C)CC3)nc21` gave an inhibition of 78%.

`COC(=O)c1ccc(N2C(=O)c3ccc(C(=O)c4ccc5c(c4)C(=O)N(c4ccc(C(=O)OC)cc4)C5=O)cc3C2=O)cc1`: the inhibition is 65%.

Compound `CC(=O)Oc1cccc(N2C(=O)c3ccc(C(=O)c4ccc5c(c4)C(=O)N(c4cccc(OC(C)=O)c4)C5=O)cc3C2=O)c1` returned an inhibition of 80%.

The compound `O=C(/C=C/c1cccc(N2C(=O)c3ccc(C(=O)c4cccc([N+](=O)[O-])c4)cc3C2=O)c1)c1ccccc1` had an inhibition of 90%.

Turning to `CCn1cc(C(=O)O)c(=O)c2cnc(N3CCN(C(=S)Nc4cc5oc6ccccc6c5cc4OC)CC3)nc21`, the inhibition came to 88%.

Consider `O=C(O)c1ccc(Oc2ccc(C(=O)c3ccc4c(c3)C(=O)N(c3ccc([N+](=O)[O-])cc3)C4=O)cc2)cc1`, for which the inhibition came to 90%.

`Cc1c(NS(=O)(=O)CC23CCC(CC2=O)C3(C)C)c(=O)n(-c2ccccc2)n1C` (stereo not given) had an inhibition of 88%.

Compound `O=C(c1ccc2c(c1)C(=O)N(c1cccc3ccccc13)C2=O)c1ccc2c(c1)C(=O)N(c1cccc3ccccc13)C2=O` returned an inhibition of 59%.

For the compound `CC(=O)OCCN1C(=O)c2ccc(C(=O)c3ccc4c(c3)C(=O)N(CCOC(C)=O)C4=O)cc2C1=O`, the inhibition stood at 91%.

In the case of `O=C(/C=C/c1cccs1)NC(=S)N1CCCCCC1`, the inhibition came out at 88%.

Consider `O=C(O)c1cccc(NC(=O)c2ccc3c(c2)C(=O)N(Cc2cccnc2)C3=O)c1`, for which the inhibition came to 56%.

`CCn1cc(C(=O)O)c(=O)c2cnc(N3CCN(C(=S)NC(CC(=O)OC)C(=O)OC)CC3)nc21` (stereo not given) had an inhibition of 62%.

Regarding `O=C(c1ccc2c(c1)C(=O)N(N1C(=O)c3ccccc3C1=O)C2=O)c1ccc2c(c1)C(=O)N(N1C(=O)c3ccccc3C1=O)C2=O`, the inhibition turned out to be 90%.

In turn, `O=C(O)c1cn(C2CC2)c2cc(N3CCN(C(=S)Nc4ccc5c(c4)OCCO5)CC3)c(F)cc2c1=O` had an inhibition of 91%.

The compound `Cc1ccc(N2C(=O)c3ccc(C(=O)c4ccc5c(c4)C(=O)N(c4ccc(C)cc4C(=O)O)C5=O)cc3C2=O)c(C(=O)O)c1` came in with an inhibition of 70%.

Compound `O=C(O)c1ccc2c(c1)C(=O)N(c1cccc(C(=O)Nc3cccc(Cl)c3)c1)C2=O` registered an inhibition of 48%.

Compound `O=C(c1ccc2c(c1)C(=O)N(c1ccccc1-c1ccccc1)C2=O)c1ccc2c(c1)C(=O)N(c1ccccc1-c1ccccc1)C2=O` came in with an inhibition of 91%.

As for `Cc1c(N2C(=O)c3ccc(C(=O)c4ccc5c(c4)C(=O)N(c4c(C)n(C)n(-c6ccccc6)c4=O)C5=O)cc3C2=O)c(=O)n(-c2ccccc2)n1C`, the inhibition turned out to be 67%.

`Cc1ccc(/N=N/c2cc(C)ccc2NC(=O)c2ccc(Oc3ccc(C(=O)Nc4ccc(C)cc4/N=N/c4ccc(C)cc4)cc3)cc2)cc1` had an inhibition of 93%.

Take `O=C(O)c1ccc(CN2C(=O)c3ccc(C(=O)c4ccc5c(c4)C(=O)N(Cc4ccc(C(=O)O)cc4)C5=O)cc3C2=O)cc1`: the inhibition amounted to 46%.

Compound `O=C(O)c1ccc(Oc2ccc(C(=O)c3ccc4c(c3)C(=O)N(c3ccccc3C(=O)O)C4=O)cc2)cc1` displayed an inhibition of 71%.

`CCn1cc(C(=O)O)c(=O)c2cc(F)c(N3CCN(C(=S)NC4CC5CCC4C5)CC3)cc21` (stereo not given) registered an inhibition of 83%.

`O=C(O)c1ccc2c(c1)C(=O)N(c1ccc(Cl)c(NC(=O)c3ccc4ccccc4c3O)c1)C2=O` showed an inhibition of 86%.

The compound `O=C(O)c1cccc(NC(=O)c2ccc3c(c2)C(=O)N(c2nccs2)C3=O)c1` displayed an inhibition of 71%.

`Cc1ccc(C(=O)O)cc1N1C(=O)c2ccc(C(=O)c3ccc4c(c3)C(=O)N(c3cc(C(=O)O)ccc3C)C4=O)cc2C1=O` returned an inhibition of 83%.

As for `O=C(NC1c2ccccc2Oc2ccccc21)c1ccc(C(=O)NC2c3ccccc3Oc3ccccc32)cc1`, the inhibition is 91%.

Regarding `CC(C)(C)c1ccc(C(=O)NC(=S)N2CCCC2)cc1`, the inhibition amounted to 76%.

As for `CC(=O)OCCCN1C(=O)c2ccc(C(=O)c3ccc4c(c3)C(=O)N(CCCOC(C)=O)C4=O)cc2C1=O`, the inhibition worked out at 58%.

Turning to `O=C(O)c1cccc(NC(=O)c2ccc3c(c2)C(=O)N(c2ccc(/N=N/c4ccccc4)cc2)C3=O)c1`, the inhibition came out at 45%.

The compound `COc1ccc(N2C(=O)c3ccc(C(=O)Nc4cccc(C(=O)O)c4)cc3C2=O)cc1` showed an inhibition of 58%.

As for `O=C(O)c1cc(C(=O)O)cc(N2C(=O)c3ccc(C(=O)c4ccc5c(c4)C(=O)N(c4cc(C(=O)O)cc(C(=O)O)c4)C5=O)cc3C2=O)c1`, the inhibition stood at 49%.

In turn, `O=C(O)c1cccc(NC(=O)c2ccc3c(c2)C(=O)N(C2CCCCC2)C3=O)c1` came in with an inhibition of 55%.

With `O=C(Cc1ccccc1)Nc1cc(N2C(=O)c3ccc(C(=O)O)cc3C2=O)ccc1Cl`, the inhibition was found to be 74%.

On to `Oc1cccc(/C=N/c2ccc(/N=N/c3ccccc3)cc2)c1O`, for which the inhibition was determined as 86%.

In turn, `CC(=O)Nc1ccc(/N=N/c2c(S(=O)(=O)O)cc3cc(NC(=O)Nc4ccc5c(O)c(/N=N/c6ccccc6)c(S(=O)(=O)O)cc5c4)ccc3c2O)cc1` had an inhibition of 71%.

`Cc1cc(=O)oc2c(/C=N/c3ccc(/N=N/c4ccccc4)cc3)c(O)ccc12` displayed an inhibition of 91%.

Take `O=C(O)c1ccc2c(c1)C(=O)N(c1ccc(Oc3ccc([N+](=O)[O-])cc3)cc1)C2=O`: the inhibition worked out at 70%.

`O=S(=O)(O)c1cc(O)c2c(/N=N/c3c(S(=O)(=O)O)cc4cc(S(=O)(=O)O)cc(O)c4c3O)cc(S(=O)(=O)O)cc2c1` registered an inhibition of 85%.

Compound `Cc1ccccc1NC(=O)c1cccc(N2C(=O)c3ccc(C(=O)O)cc3C2=O)c1` registered an inhibition of 79%.

As for `O=C(O)c1ccc2c(c1)C(=O)N(c1ccc(-c3nnc(-c4ccccc4)o3)cc1)C2=O`, the inhibition came to 87%.

Consider `O=C(NN1C(=O)c2ccc(C(=O)c3ccc4c(c3)C(=O)N(NC(=O)c3ccncc3)C4=O)cc2C1=O)c1ccncc1`, for which the inhibition came out at 31%.

On to `CCCCOC(=O)c1ccccc1N1C(=O)c2ccc(C(=O)c3ccc4c(c3)C(=O)N(c3ccccc3C(=O)OCCCC)C4=O)cc2C1=O`, for which the inhibition was 87%.

`Oc1ccc(/N=N/c2ccccc2Br)cc1/C=N/c1ccc(I)cc1`: the inhibition worked out at 87%.

As to `O=C(O)c1cccc(NC(=O)c2ccc3c(c2)C(=O)N(c2ccccc2)C3=O)c1`, the inhibition was found to be 79%.

On to `CCS(=O)(=O)N1N=C(c2ccc(NS(C)(=O)=O)cc2)CC1c1ccc(OC)cc1` (stereo not given), for which the inhibition was 89%.

`Cc1ccc(/N=N/c2cc(C)ccc2NC(=O)c2ccc3c(c2)C(=O)N(N2C(=O)c4ccccc4C2=O)C3=O)cc1` gave an inhibition of 81%.

Consider `O=C(c1ccc2c(c1)C(=O)N(Cc1ccccc1)C2=O)c1ccc2c(c1)C(=O)N(Cc1ccccc1)C2=O`, for which the inhibition stood at 67%.

`CCCCN1C(=O)c2ccc(C(=O)Nc3cc(C(=O)O)cc(C(=O)O)c3)cc2C1=O` came in with an inhibition of 89%.

As for `CCn1cc(C(=O)O)c(=O)c2cnc(N3CCN(C(=S)Nc4cc(Cl)cc(Cl)c4)CC3)nc21`, the inhibition worked out at 0%.

`Cc1ccc(NC(=S)NC(=O)C2CCCC2)cc1C` returned an inhibition of 90%.

Consider `CCOc1ccccc1N1C(=O)c2ccc(C(=O)c3ccc4c(c3)C(=O)N(c3ccccc3OCC)C4=O)cc2C1=O`, for which the inhibition was 86%.

With `O=C(O)c1ccc2c(c1)C(=O)N(c1cccc(N3C(=O)c4ccc(C(=O)O)cc4C3=O)n1)C2=O`, the inhibition came to 89%.

The compound `CC(C)C(=O)NC(=S)Nc1ccc(N2CCOCC2)cc1` showed an inhibition of 80%.

In turn, `O=C(O)c1cc(NC(=O)c2ccc3c(c2)C(=O)N(CC2CCCO2)C3=O)cc(C(=O)O)c1` (stereo not given) displayed an inhibition of 71%.

On to `O=C(O)c1ccc2c(c1)C(=O)N(c1ccc(/N=N/c3ccccc3)cc1)C2=O`, for which the inhibition was 82%.
